Reference: US9671415B2, “Immunoassay for pyrrolidinophenones” (RANDOX LABORATORIES LIMITED, priority 2014, dated 2017)
≈ marks a conversion by molar mass, not a printed value. Where “and” joins values, the source holds several entries; their conditions need not be identical. Equal entries are not always repeated. Structures can show the parent of a compound that is named as a salt.

Legend:
[1] = test system: α-PVP antibody; assay: α-PVP/MDPV ELISA kit validation assay (Example 11); format: binding; conditions: for % Cross-Reactivity: α-PVP/MDPV ELISA kit specificity, relative to α-PVP = 100, Table 10; for % CR: calculated with reference to the standard of that run; for Reactant IC50: standard concentration which produced 50% B/B0 in that run
Procedure: A microtitre plate was precoated with α-PVP antibody. α-PVP (antigen), if present in the sample competes with the horseradish peroxidase labelled α-PVP (enzyme labelled antigen) for a limited number of antibody sites on the microtitre plate. After incubation at room temperature to allow a competition reaction to take place, the microtitre plate was washed to remove excess reagents. The enzyme substrate was added. After an incubation period to allow maximum colour development, the colour reaction was stopped by the addition of acid. This produces a colour change from blue to yellow, and the absorbances are read at 450 nm. A standard curve was then constructed to determine the α-PVP concentration in the sample.
2. Urine samples were diluted 1:50 with diluent (I.e. 10 μl sample+490 μl diluent).
• 1. Whole blood samples were diluted 1:50 with diluent (i.e. 10 μl sample+490 μL diluent). • 2. The sample was mixed gently by pipetting without the formation of foam. Procedure
The assay was performed in duplicate. The layout of Table 4 was used where each box represents 2 wells:
a) Table 5 details what was pipetted into the appropriate wells of the microtitre plate:
b) The microtitre plate was gently tapped from side to side for a few seconds. c) The microtitre plate was covered with a plate sealer before incubating for 30 minutes at room temperature (+15° C. to +25° C.) in the dark. d) The plate was inverted and the liquid tapped out liquid. e) The plate was washed 6 times with diluted wash buffer (ensuring all wells were filled), over a 10-15 minute period. After the final wash the liquid was discarded liquid and the plate was tapped onto lint free tissue paper until completely dry. f) Immediately after washing, one 125 μl shot of substrate was pipetted into each well using a multichannel pipette. The microtitre plate was gently tapped from side to side and incubated for 20±2 minutes at room temperature (+15 to +25° C.) in the dark. g) The colour reaction was stopped by the addition of 100 μl of stop solution per well. A colour change from blue to yellow resulted. h) The optical density was measured at 450 nm within 10 minutes of stopping the colour reaction. The use of a 630 nm filter was used as the reference wavelength. […] Assay Cut-Off
Equally, pyrrolidinopentiothiophenone and mdpbp were assessed in the same run; and mdppp and α-pyrrolidinopropiophenone were assessed in the same run. […] The Reactant IC50s (i.e. ^2 in the table above) are the standard concentrations which produced 50% B/B0 in that run. The % CR (last column in the table above) is calculated with reference to the standard used in that particular run.

[2] = test system: Antibody-1B; assay: Competitive ELISA for pyrrolidinophenones, Antibody-1B with Tracer-1 (Example 10); format: binding, sheep; conditions: Antibody-1B coated at 2.5 μg/ml, Tracer-1 at 1/128k; for IC50 / % Cross-Reactivity: Table 2; for % Cross-Reactivity: relative to α-PVP = 100
Procedure: The purified polyclonal antibody from Example 9 (Antibody-1B) was immobilised on a 96 well ELISA plate at 2.5 μg/ml in 10 mM TRIS buffer, pH 8.5 overnight at 4° C. The assay is based on competition for binding sites of a polyclonal antibody between HRP tracer (Tracer-1) and α-PVP or potential cross-reactants. The plate was washed (×3) with TBST (Tris-Buffered Saline/Tween solution) and the calibrator (α-PVP) or potential cross reactants added (50 μl per well), followed by HRP tracer (Tracer-1) (75 μl/well) to the appropriate wells. The plates were then incubated for 60 minutes at 25° C. They were then subjected to 2 quick wash cycles using TBST, followed by 4×2 minute wash cycles. 125 μl of signal (TMB) was then added to each well for 20 mins at room temperature in the dark. The reaction was stopped by the addition of 125 μl of 0.2 M sulphuric acid per well and the plates read immediately at 450 nm. Calibration curves were generated using α-PVP and these were used to determine the sensitivity and specificity of the immunoassay for potential cross-reactants. The data was inputted to a computer program called KC Junior (Biotek). It gives a 4 parameter fit curve and allows the calculation of concentrations between the standard runs. This program is used to calculate the IC50 values by dividing the 0 ng/ml optical density (OD) value by 2 and obtaining the concentration value from the curve for this OD. The results of this study are presented in Tables 1 and 2, cross-reactivity being calculated according to the following formula: % CR=[…]/IC50 CR×100 wherein % CR is the percentage cross-reactivity, IC50 α-PVP is the concentration of α-PVP which causes 50% displacement of signal and IC50 CR is the concentration of potential cross-reactant that causes 50% displacement of signal.
Antibody-1B (Example 9) used to generate the data in the tables below was raised from Immunogen-1B (Example 7) and the HRP tracer (Tracer-1) was prepared as in Example 8. All of the compounds in Table 2 are commercially available from suppliers such as Cayman Chemical (Ann Arbor, Mich., USA).

[3] = test system: Antibodies in EP2626358; conditions: immunoassay of EP2626358; cited from earlier work
[4] = unit not given, Table 11, in ng/mL

SMILES | % Cross-Reactivity [1] | IC50 [2] | % Cross-Reactivity [2] | % CR ([1]; Table 11) | Reactant IC50 [1, 4] | further results
Cc1ccc(C(=O)C(C)N2CCCC2)cc1 (racemic) [4′-Methyl-α-pyrrolidinopropiophenone] | 1.8% | >10 ng/mL | <3.150% |  |  | 
CC(C(=O)c1ccc2c(c1)OCO2)N1CCCC1 (stereo not drawn) [3′,4′-Methylenedioxy-α-pyrrolidinopropiophenone] | 0.8% |  |  | 0.8% | 17.727 | 
CCCCCCC(C(=O)c1ccc(F)cc1)N1CCCC1.Cl (stereo not drawn) [4-Fluoro-PV9 HCl, 1-(4-fluorophenyl)-2-(pyrrolidin-1-yl)octan-1-one, monohydrochloride] | 3.2% |  |  |  |  | 
CNC(C)C(=O)c1ccc(F)cc1 (stereo not drawn) [4-Fluoromethcathinone, 4-fluoro-N-methylcathinone] | <1% |  |  |  |  | 
CCCCCC(C(=O)c1ccc(OC)cc1)N1CCCC1.Cl (stereo not drawn) [4-Methoxy-PV8 HCl, 1-(4-methoxyphenyl)-2-(pyrrolidin-1-yl)heptan-1-one, hydrochloride] | 11.7% |  |  |  |  | 
CCCC(C(=O)c1ccc(OC)cc1)N1CCCC1 (stereo not drawn) [4-Methoxy-α-pyrrolidinopentiophenone, 4′-Methoxy-α-pyrrolidinopentiophenone] |  | 0.233 ng/mL (≈ 0.891 nM) | 135.193% |  |  | 
CCCCC(C(=O)c1ccc(C)cc1)N1CCCC1 (stereo not drawn) [4′-Methyl-α-pyrrilidinohexylphenone] | 38.1% |  |  |  |  | 
CCC(C(=O)c1ccc(C)cc1)N1CCCC1 (stereo not drawn) [4′-Methyl-α-pyrrolidinobutiophenone] | 23.2% |  |  |  |  | 
CCC(NC)C(=O)c1ccc2c(c1)OCO2 (stereo not drawn) [Butylone, 1-(1,3-benzodioxol-5-yl)-2-(methylamino)butan-1-one] | <1% |  |  |  |  | 
CCC(C(=O)c1ccc2c(c1)OCO2)N1CCCC1 (stereo not drawn) [MDPBP, 3′,4′-Methylenedioxy-α-pyrrolidinobutiophenone] | 17.2% | 1.532 ng/mL (≈ 5.86 nM) | 20.561% | 17.2% | 1.044 | 
CCCC(C(=O)c1ccc2c(c1)OCO2)N1CCCC1 (stereo not drawn) [MDPV, 3′,4′-Methylenedioxy-α-pyrrolidinopentiophenone] | 93.3% | 0.176 ng/mL (≈ 0.639 nM) | 178.977% | 93.3% | 0.164 | 
CNC(C)C(=O)c1ccc(C)cc1 (stereo not drawn) [Mephedrone] | <1% |  |  |  |  | 
CNC(C)C(=O)c1ccc(OC)cc1 (stereo not drawn) [Methedrone] | <1% |  |  |  |  | 
CNC(C)C(=O)c1ccc2c(c1)OCO2 (stereo not drawn) [Methylone] | <1% |  |  |  |  | 
CCCC(C(=O)c1ccc2ccccc2c1)N1CCCC1 (stereo not drawn) [Naphyrone, 1-(naphthalen-2-yl)-2-(pyrrolidin-1-yl)pentan-1-one] | 70.2% | 0.221 ng/mL (≈ 0.785 nM) | 142.534% | 70.2% | 0.218 | 
CCCC(NC)C(=O)c1ccc2c(c1)OCO2 (stereo not drawn) [Pentylone, 1-(1,3-benzodioxol-5-yl)-2-(methylamino)pentan-1-one] | <1% |  |  |  |  | 
CCCC(C(=O)c1ccc(C)cc1)N1CCCC1 (stereo not drawn) [Pyrovalerone, 4-Methyl-α-pyrrolidinopentiophenone] | 125.4% | 0.168 ng/mL (≈ 0.685 nM) | 187.500% | 125.4% | 0.122 | 
CCCC(C(=O)c1ccccc1)N1CCCC1 (stereo not drawn) [α-PVP, α-Pyrrolidinovalerophenone] | 100% | 0.315 ng/mL (≈ 1.36 nM) | 100% | 100% | 0.153 | cross-reactivity [3]: very low; STD IC50 ([1]; IC50 of the standard (alpha-pvp) in the same run as the reactant of the line, unit not given, Table 11, in ng/mL): 0.18 and 0.153 and 0.149; IC50 (standard concentration which produces 50% B/B0) ([2]; standard α-PVP, Table 1): 0.315 ng/mL (≈ 1.36 nM)
CCCC(C(=O)c1cccs1)N1CCCC1 (stereo not drawn) [α-Pyrrolidinopentiothiophenone HCl, α-Pyrrolidinopentiothiophenone] | 73.2% |  |  | 73.2% | 0.246 | 
CC(C(=O)c1ccccc1)N1CCCC1 (stereo not drawn) [α-Pyrrolidinopropiophenone] | 0.8% | >10 ng/mL | <3.150% | 0.8% | 18.744 | 
